We go through six compounds from PMC6522914, “Benzonate derivatives of acetophenone as potent α-glucosidase inhibitors: synthesis, structure–activity relationship and mechanism” (Journal of Enzyme Inhibition and Medicinal Chemistry, 2019).

Assay [1] can be described thus: Sucrose-loading test (postprandial blood glucose). It counts as in vivo, Kunming mice. The following applies: mice, 20 mg/kg by gavage, sucrose 2.5 g/kg, 0–120 min. As for the experimental part: The carbohydrate loading test was conducted according as Kato et al.[23] and Han et al.[24] reported, with slight modifications. Fifteen male Kunming mice (35–40 g) after an overnight fast were randomly divided into three groups (five mice per group). […] A blank control group was loaded with 0.5% CMC–Na solution only. The blood samples were collected from the mice’s tail vein at 0, 15, 30, 60, 90, and 120 min, and the blood glucose levels were determined by a glucose detection kit.

The target of assay [2] is α-glucosidase (EC 3.2.1.20) (Saccharomyces cerevisiae, UniProt P53341). Nature of the assay: α-Glucosidase inhibitory assay (pNPG substrate). Conditions: in vitro. It counts as biochemical. As to the method:
The α-glucosidase inhibitory assay was performed according to a slightly modified method previously reported[21]^,[22]. In brief, a series of reaction solutions, including a fixed amount of α-glucosidase (10 unit/mL 3.75 µL), different concentrations of inhibitors (the tested compounds or positive controls, 37.5 µL), and sodium phosphate buffer (PBS, […], 0.1 M, pH 6.8), were incubated at 37 °C for 10 min. To initiate the reaction, 112.5 µL of pNPG (6.0 mM, as a substrate) was added into the pre-incubated mixtures, and the final volume of reaction system was kept at 750 µL. The p-nitrophenol released from pNPG substrate was used as the target substance to quantify the enzymatic activity. […] The negative control was prepared by adding PBS instead of α-glucosidase, the blank was prepared by adding solvent instead of tested compounds, and the inhibition rate was calculated as the following Equation (1). (1) (ODcontrol−ODcontrol blank)−(ODtest−ODtest blank)/ODcontrol−ODcontrol blank×100%

Assay [3] has as its target T1, α-glucosidase (Saccharomyces cerevisiae, UniProt P53341). The following applies: cited from earlier work.
Assay [4] deals with T1, α-glucosidase. Nature of the assay: Synchronous fluorescence spectra. It counts as binding. The following applies: 7u 0–6 µM, 25 °C. From the text: (§1) The synchronous fluorescence spectra of α-glucosidase in the absence and presence of compound 7u were scanned by setting the excitation and emission wavelength intervals (Δλ) at 15 and 60 nm, respectively. To eradicate the probability of re-absorption and inner filter effects in UV absorption, all of the fluorescence data were corrected for absorption of exciting light and emitted light, based on the Equation S1[3]^,[13].

The target of assay [5] is T1, α-glucosidase. The assay is described as follows: Fluorescence quenching and van't Hoff thermodynamics. It counts as binding. The following applies: for ΔG^o: van't Hoff. As for the experimental part: The steady state fluorescence emission spectra, were recorded between 300 and 500 nm at the excitation wavelength of 280 nm at three different temperatures (25, 31 and 37 °C), and both the excitation and emission slits were set at 2.5 nm. Compound 7u at different concentrations (from 0 to 6 µM) were added into the 3.0 ml solution containing a fixed amount of α-glucosidase (2μM). All of the mixtures were held for 5 min to equilibrate before measurements. The fluorescence spectra of buffer were subtracted as the background fluorescence.
as §1

The target in assay [6] is T1, α-glucosidase. Nature of the assay: Kinetic analysis of inhibition type (Lineweaver–Burk / Michaelis–Menten). It counts as biochemical. As to the method:
To further explore the inhibitory characteristic of this type of compounds, kinetic studies of the selected compound 7u were performed[3]^,[13]^,[26]. Different final concentrations (0.5, 1, 2, 4, and 8 µM) of the inhibitor 7u around the IC50 values were chosen. The concentration of α-glucosidase was kept at 1 µM, and the pNPG concentrations varied from 2.0 to 12.0 mM in the absence and presence of compound 7u. The type of inhibition was analyzed on the basis of the Michaelis–Menten constant (Km) and maximal rate (Vmax) of the enzyme. The parameters were determined via Lineweaver–Burk plots, which was obtained by plotting enzyme reaction velocity (ν) and substrate (pNPG), namely, 1/ν versus 1/[pNPG]. The secondary plot slope against [7u] was also determined. The protein concentration was determined according to the Bradford method[27] using bovine serum albumin as the standard.

Assay [7] concerns the target T1, α-glucosidase. The assay is described as follows: Isothermal titration calorimetry. Conditions: ITC, 25 °C. It counts as binding. As for the experimental part:
Titration of the compound 7u into the α-glucosidase was performed at 25 °C. All the solutions were prepared in 0.1 M PBS (pH 6.8). The α-glucosidase solution (2.5μM) was placed in the 1.3 ml sample cell of the calorimeter, and the injection syringe was loaded with the solution of 7u (30μM, in 0.05% DMSO). The solution of compound 7u was titrated into the sample cell at 25 °C as a progression of 25 injections of 10μL. The time delay between each two injections was 300 s. To ensure comprehensive mixing, all the sample was stirred at a speed of 300 rpm during experiment. The control experiments included the titration of the compound 7u solution into 0.1 M PBS (pH 6.8)[33–35].
On the technique in general: Isothermal titration calorimetry measures the heat released or taken up as one component is titrated into another.

Assay [8] has as its target T1, α-glucosidase. Nature of the assay: Circular dichroism measurement. It counts as binding. Conditions: 7u 0–4 µM, α-glucosidase 2 µM, 25 °C. As to the method: The CD measurements of α-glucosidase in the presence of compound 7u were conducted in far–UV region (190–250 nm), under nitrogen environment using a 1.0 mm path length cuvette. The concentration of α-glucosidase was maintained constant (2 µM) while the 7u concentration was varied as 0, 1, 2, and 4 µM. All observed CD spectra were recorded in 0.1 M PBS (pH 6.8) at 25 °C[13]^,[31].
On the technique in general: Circular dichroism is the unequal absorption of left and right circularly polarised light.

A further assay concerns intestinal α-glucosidase. Nature of the assay: Everted intestinal sleeve assay. On the set-up: species or system Sprague–Dawley rats. As to the method: ^1H NMR and ^13 C NMR spectra were carried out using a 500 MHz Avance spectrometer (Bruker, USA) or a Varian Mercury 400 MHz spectrometer. Chemical shifts were measured relative to the residual solvent peaks of CDCl3 with tetramethylsilane as the internal standard. High-resolution mass spectra were recorded on an AB SCIEX Triple TOF 5600+ spectrometer. The in vitro inhibitory activity and kinetic assay of α-glucosidase were measured by a microplate reader (Synergy HTX, BioTek Instruments Inc., Winooski, VT, USA). Fluorescence spectra were conducted on a spectrofluorometer (LS55, Perkin Elmer Inc., Waltham, MA, USA). […] Titration microcalorimetry measurement conducted on a Nano-ITC SV instrument (TA Instruments Ltd., UK). The surgeries were performed under anesthesia and all efforts were made to minimise animal suffering. The blood glucose levels were determined via a glucose detection kit (Robio Co., Ltd., Shanghai, China). […] The concentrations of glucose in the soaking solution and intestinal sleeve were detected using S-10 biosensor analyzer (Sieman Technology Co., Ltd., Shenzhen, China). All reaction progress was monitored by thin-layer chromatography (TLC) on silica gel GF254 (Qingdao Haiyang Chemical Co., Ltd., Qingdao, China) with ultraviolet detection. Reagents were purchased from commercial sources (Bodi Chemical Co., Ltd., Tianjin, China; Aladdin Industrial Co., Ltd., Shanghai, China), and used as received. α-Glucosidase (EC 3.2.1.20, Sigma-Aldrich Chemical, St. Louis, MO, USA); 4-nitrophenyl-α-D-glucopyranoside (pNPG) (99%, Macklin Biochemical Co., Ltd, Shanghai, China).
After a 12-h fasting, the jejunum of 200–220 g Sprague-Dawley […] was obtained. Then the proximal jejunum was flushed with pre-cold isotonic saline (4 °C) and cut into 3 cm-long segments. Each segment was weighed separately, everted and both ends were secured by tying knots. Then the sleeves were incubated (90 min at 37 °C) in mammalian Ringer’s solution containing sucrose (1.5 mM) and an appropriate concentration of the inhibitor (0.17 mM). Following the incubation, the concentrations of glucose in the soaking solution and intestinal sleeves were tested with biosensor analyzer (S-10). The total glucose concentration was calculated as glucose per gram of gut weight (mmol/g).

Entries after “also recorded” stand apart in the source; their conditions may differ. Where two headings read alike, the source gives them in different places.

T1 sequence (P53341 whole entry): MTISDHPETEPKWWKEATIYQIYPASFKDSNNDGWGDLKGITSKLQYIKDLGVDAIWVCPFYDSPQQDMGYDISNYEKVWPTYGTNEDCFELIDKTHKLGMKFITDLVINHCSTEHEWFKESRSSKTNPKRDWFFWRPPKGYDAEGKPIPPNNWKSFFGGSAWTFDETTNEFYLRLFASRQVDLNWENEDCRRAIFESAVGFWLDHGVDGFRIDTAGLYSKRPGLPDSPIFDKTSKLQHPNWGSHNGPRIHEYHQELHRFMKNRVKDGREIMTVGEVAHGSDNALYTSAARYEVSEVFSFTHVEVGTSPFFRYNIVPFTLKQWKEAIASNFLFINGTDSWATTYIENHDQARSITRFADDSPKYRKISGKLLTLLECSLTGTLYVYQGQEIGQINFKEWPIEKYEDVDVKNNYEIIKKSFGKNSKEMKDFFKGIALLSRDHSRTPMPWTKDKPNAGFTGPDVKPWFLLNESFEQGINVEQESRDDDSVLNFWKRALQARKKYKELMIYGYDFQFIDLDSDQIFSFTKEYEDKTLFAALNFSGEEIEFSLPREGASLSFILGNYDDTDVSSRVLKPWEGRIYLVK
α-glucosidase (EC 3.2.1.20), sequence (P53341 whole entry): as above

`C[C@H]1O[C@H](O[C@H]2[C@H](O)[C@@H](O)[C@@H](O[C@H]3[C@H](O)[C@@H](O)C(O)O[C@@H]3CO)O[C@@H]2CO)[C@H](O)[C@@H](O)[C@@H]1N[C@H]1C=C(CO)[C@@H](O)[C@H](O)[C@H]1O` (stereo partly shown) [Acarbose, acarbose, reference compound]: the “effect on postprandial blood glucose levels” value in [1] is reported as “at lower level than the model group”.
`CC(=O)c1cc(C)c(O)cc1O` [compound 3, 2,4-dihydroxy-5-methylacetophenone]: the “α-glucosidase inhibitory activity (in words)” value in assay [2] is on record as “considerable inhibitory activity against α-glucosidase in prescreen”.
For `CC(C)=CCC/C(C)=C/Cc1c(O)cc(O)c(C(=O)/C=C/c2ccc(O)cc2)c1O` [compound 1, 3′-geranylchalconaringenin], the “inhibition activity against α-glucosidase compared with acarbose” value at α-glucosidase [3] (ref Sun et al. 12) was “superior inhibition activity against α-glucosidase than acarbose”.
As usually defined, the Vmax is the top rate of the reaction or transport when substrate is in excess. `CC(=O)c1cc(Br)c(OC(=O)c2ccccc2[N+](=O)[O-])c(Br)c1O` [7u]: at α-glucosidase [4] (Δλ = 15 nm), the “shift of maximum emission wavelength of Tyr residues” value was “No evident shift”. The “shift of maximum emission wavelength of Trp residues” value at α-glucosidase [4] (Δλ = 60 nm) is recorded as “noticeable red shift (from 277.5 to 286.5 nm)”. Further, the results for the “KSV (quenching constant)” value on α-glucosidase [5] (25 °C), on α-glucosidase [5] (31 °C) and at α-glucosidase [5] (37 °C) were 5.00 ± 0.04 × 10^4 L·mol^−1, 4.74 ± 0.03 × 10^4 L·mol^−1 and 4.31 ± 0.02 × 10^4 L·mol^−1, respectively. Also, the “n (number of binding sites)” value at α-glucosidase [5] (25 °C) was found to be 1.23; on α-glucosidase [5] (31 °C) it was 1.19; at α-glucosidase [5] (37 °C), 1.15. Also, the figures for the “ΔG^o” value on α-glucosidase [5] (25 °C), on α-glucosidase [5] (31 °C) and at α-glucosidase [5] (37 °C) were -7.698 ± 0.014 kcal/mol, -7.488 ± 0.0072 kcal/mol and -7.28 ± 0.0048 kcal/mol, respectively. For the same compound, at α-glucosidase [5] (KSV versus temperature), the quenching mechanism result is given as “static quenching mechanism”. The Kq on α-glucosidase [5] (fluorescence quenching) was ~10^12 L·mol^−1·s^−1. Further, the Vmax on α-glucosidase [6] (7u 1 µM) worked out at 1.39 ± 0.02 µM/min; on α-glucosidase [6] (7u 2 µM), 1.24 ± 0.01 µM/min; at α-glucosidase [6] (7u 4 µM), 1.04 ± 0.01 µM/min; on α-glucosidase [6] (7u 8 µM), 0.84 ± 0.02 µM/min. For the same compound, the type of inhibition entry at α-glucosidase [6] (Lineweaver–Burk plot) was “mixed-type inhibition”. In addition, the ΔG result at α-glucosidase [7] was “–39.04 kJ·mol^−1”; on α-glucosidase [7] (listed as 7 u), -9.331 kcal/mol. Further, on α-glucosidase [7], the ΔH was -23.901 kcal/mol. Besides, the ΔS entry on α-glucosidase [7] is “–204.50 J·mol^−1·K^−1”; on α-glucosidase [7] (listed as 7 u), −204.50 J·mol^−1·K^−1. In addition, the “CD negative bands at 209 and 220 nm” value on α-glucosidase [8] is “both intensity of the negative bands decreased”. Also, the “effect on postprandial blood glucose levels” value in [1] (20 mg/kg) is “significantly attenuated postprandial blood glucose in mice; also recorded: obvious repressive effect on blood glucose concentrations at peaked 15 min”. For the same compound, the “inhibitory activity on intestinal α-glucosidase compared with acarbose” value in the assay with intestinal α-glucosidase (0.17 mM) is reported as “better than that of acarbose”. The “glucose concentration in the solution outside the intestinal sleeves” value in the assay on intestinal α-glucosidase (0.17 mM inhibitor, sucrose 1.5 mM) is given as “decreased the glucose concentrations in the solution present outside the intestinal sleeves”. Besides, in the assay with intestinal α-glucosidase (0.17 mM inhibitor, sucrose 1.5 mM, 5–90 min, versus blank), the “total concentration of glucose” value is reported as “much lower than that of the blank”. In the assay on intestinal α-glucosidase (0.17 mM inhibitor, sucrose 1.5 mM, versus blank), the “glucose concentration in the intestinal sleeves” value is recorded as “lower than that of blank”.
With `O=c1cc(-c2ccc(O)cc2)oc2cc(O)cc(O)c12` [compound 2, apigenin], the “inhibition activity against α-glucosidase compared with acarbose” value on α-glucosidase [3] (ref Zeng et al. 13) is “superior inhibition activity against α-glucosidase than acarbose”.
As to `CC(=O)c1cc(Br)c(OC(=O)CCCCBr)c(Br)c1O` [7h], the “α-glucosidase inhibitory activity (in words)” value in [2] is “lost the activity”.
